Data as given in patent US20100267763A1, “Method of Decreasing Pro-ADAM10 Secretase and/or Beta Secretase Levels” (priority 2009, published 2010).
Entries after “also recorded” stand apart in the source; their conditions may differ. Like-named read-outs stand apart in the source and are kept apart here.

What was measured:
Presenilin 1 = assay: Western blot of Presenilin 1 in brain extracts of 3xTg-AD mice; assay type: in vivo, mouse; conditions: 12-month-old 3xTg-AD mice, 5 mg/kg/day, 2 months
Description: (§1) Western blots were probed with antibodies against BACE1 and ADAM10. FIG. 11A is a series of Western blots depicting levels of proADAM10, ADAM10, proBACE, BACE, Presenilin1 and APP-CFTs in brain extracts from ST101 treated 3xTG-AD mice (S) versus control mice (C). C: control brain extract. S: ST101-treated brain extract. Animals were approximately 12 months old at sacrifice after 2 months of treatment with ST101 at 5 mg/kg/day.
(§2) FIG. 11B depicts quantification of the Western blot bands from FIG. 11A by densitometry.

tau [1] = assay: Tau immunohistochemistry with H7 anti-tau antibody in 3xTg-AD mice; assay type: in vivo, mouse
Description: The 3xTg-AD mouse model incorporates both pathological hallmarks of Alzheimer's disease: Aβ amyloid plaques and neurofibrillary tangles. Neurofibrillary tangles consist of accumulates of abnormally phosphorylated tau protein. In the 3xTg-AD mice pathological somato-dendritic accumulation of tau can be seen in immunohistochemistry as part of the disease model phenotype.
ST101 effects on tau distribution and accumulation were explored in immunohistochemistry with H7 anti-tau antibody.

[2] = cited from earlier work
Monkey toxicity studies = assay type: in vivo; conditions: up to 6 months, doses up to approximately 100-fold higher than in 3xTg-AD mice
Description: (§3) Brain samples from cynomolgus monkeys were obtained at the conclusion of a six-month chronic toxicity study. The cynomolgus monkeys used in this study were juveniles of less than 4 years of age. ST101 was administered daily for 6 months by naso-gastric tube at 10 mg/kg/day (n=8 per group). Data was generated from 8 treated and 8 control animals. Levels of Aβ1-40 are shown in FIG. 9, which is a bar graph that depicts the effect of ST 101 on Aβ in brain tissue from cynomolgus monkeys. FIG. 9 depicts the amount of levels of Aβ1-40 in monkeys treated with ST 101, relative to control monkeys.
(§4) On the surface, reduction of alpha-secretase cleavage could be considered an undesirable effect as alpha-secretase cleaves multiple other substrates. Thus, one could hypothesize that reduction of alpha-secretase might cause toxicity. However, ST101 has been proven safe in rodent and monkey toxicity studies of up to 6 months at doses up to approximately 100-fold higher than the ones used in the 3xTg-AD mice. […] This may be due to an incomplete effect of ST101 on alpha-secretases or due to activity of other alpha-secretases compensating for a major effect of ST101 on ADAM10.

3xTg-AD mice = assay: Morris water maze in 3xTg-AD mice; assay type: in vivo, mouse; conditions: 2 months
Description: 3xTg-AD mice of approximately one year of age were treated for 2 months with ST101. An average dose of 5 mg/kg/day was administered in drinking water (calculated dose, based on mean water consumption). Behavioral effects were tested by assessing performance on the Morris Water Maze. Biochemical effects were examined by measuring brain content of Aβ and APP by ELISA and Western Blot.
Behavioral Effects: Performance of 3xTg-AD Mice in the Morris Water Maze (MWM), adapted from Roozendaal et al., Proc. Natl. Acad. Sci. U.S.A. 100: 1328-1333 (2003).
The MWM tests both spatial memory (i.e. hippocampus dependent) and cued learning (i.e. non-hippocampal) in rodents. The maze is a circular tank filled with opaque water. Mice are placed in the water and must swim to find and escape onto a platform submerged 1.5 cm beneath the surface of the water. The time (in seconds) required to find the platform is recorded. Animals rely on visual cues in the room containing the tank in order to find the platform on successive challenges. Training was conducted daily for seven consecutive days.
Retention of training was assessed twice, 24 and 72 hours after the final training trial. Animals were subjected to a 60-second free swim in the tank with the platform removed. Parameters measured included (1) latency: time required to reach the former platform location and (2) crosses: the number of times the animal swam across the former platform location.

SAMP8 mouse = conditions: cited from earlier work
[3] = in vivo
Description: as §4

APP = assay: Western blot of APP and APP C-terminal fragments in brain extracts of 3xTg-AD mice; assay type: in vivo, mouse; conditions: 5 mg/kg/day
Description: To attempt to determine at what part in the Aβ processing/release pathway ST101 may be active, a series of Western blot analyses of brain extracts from the same mice were conducted. These Westerns blots examined intact APP as well as products of its post-translational processing and subsequent degradation.
FIG. 4 is a Western blot that depicts APP C-terminal fragments detected by antibody CT20 in the brains of ST101-treated (S) 3xTg-AD mice, relative to untreated (C) 3xTg mice-AD.
FIG. 5 is a Western blot that depicts APP and degradation fragments detected by antibody CT20 in the brains of ST101-treated (S) 3xTg-AD mice, relative to untreated (C) 3xTg-AD mice. “CT20” stands for full length APP species, and “Actin” stands for anti-beta-actin antibody as a protein loading control.
FIGS. 10A and 10B are Western blots that depict APP carboxy-terminal fragments detected by antibody CT20 in the brains of ST101-treated (T in FIG. 10A, S in FIG. 10B) 3xTg-AD mice, relative to untreated (C) 3xTg-AD mice. FIG. 10B is from a separate experiment that used the same brain extract used in the experiment for FIG. 10A. Animals were approximately 14.5 months old at sacrifice after 2.5 months of treatment with ST101 at 5 mg/kg/day in drinking water. * denotes a control animal with low levels of CTFs.
FIGS. 10C and 10D are Western blots that depict APP carboxy-terminal fragments detected by an APP C-terminal antibody (Eptitomics #: 15654-1) in the brains of ST101-treated (S) 3xTg-AD mice, relative to untreated (C) 3xTg-AD mice. FIG. 10D is a lighter exposure of the Western blot in FIG. 10C. Animals were approximately 14.5 months old at sacrifice after 2.5 months of treatment with ST101 at 5 mg/kg/day in drinking water.

ADAM17 (TACE) = assay: Western blot of TACE in brain extracts of 3xTg-AD mice; assay type: in vivo, mouse; conditions: 14.5-month-old 3xTg-AD mice, 2 months of treatment, 5 mg/kg/day in drinking water
Description: In addition to ADAM10, ADAM17 (TACE, which is Tumor Necrosis Factor converting enzyme) is known to act as an alpha-secretase of APP. Thus, it was tested in a Western blot whether ST101 reduces levels of ADAM17 (TACE).
The Western blot was obtained using a TACE specific antibody in brain extracts from ST101 treated 3xTG-AD mice (S) versus control mice (C). Animals were approximately 14.5 months old at sacrifice after 2 months of treatment with ST101 at 5 mg/kg/day in drinking water.

sAPP-beta = assay: Western blot of sAPP-beta in brain extracts of 3xTg-AD mice; assay type: in vivo, mouse; conditions: 14.5-month-old 3xTg-AD mice, 2 months of treatment, 5 mg/kg/day in drinking water
Description: FIG. 10B describes a reduction of fragment C99. C99 is created by BACE cleavage which leads to release of soluble APP, specifically sAPP-beta. […] The Western blot was obtained using an sAPP-beta specific antibody in brain extracts from ST101 treated 3xTG-AD mice (S) versus control mice (C). Animals were approximately 14.5 months old at sacrifice after 2 months of treatment with ST101 at 5 mg/kg/day in drinking water.

Neuro2a cells = assay: Aβ production by Neuro2a cultured cells, ELISA of culture medium; assay type: cell-based, murine; conditions: 24 hours of treatment, vs control
Description: Neuro2a is a murine neuroblastoma cell line that is known to produce amyloid peptides Aβ1-40 and Aβ1-42 in amounts measurable by ELISA assays. These forms of Aβ have been correlated with the pathology in AD brain and Aβ1-42 in particular is postulated to have the ability to block α7 nicotinic receptors and to produce direct neurotoxic effects. Neuro2a cells were treated for 24 hours with ST101 added to the tissue culture medium. Tissue culture medium was collected and analyzed by ELISA for the presence of Aβ.
FIGS. 1A and 1B are bar graphs that depict the effect of the compound ST101 on Aβ production by Neuro2a cells. FIG. 1A is a bar graph that depicts the Aβ concentration in the cell culture medium as a function of ST101 concentration compared to control. FIG. 1B a bar graph that depicts the ratio of Aβ1-42 to Aβ1-40 as a function of ST101 concentration compared to control.

[4] = cited from earlier work; remark: listed apart in the source
Aβ1-40 = assay: Aβ in brain tissue from cynomolgus monkeys; assay type: in vivo; conditions: juvenile cynomolgus monkeys, 10 mg/kg/day by naso-gastric tube, 6 months
Description: as §3

ADAM10 = assay: Western blot of ADAM10 in brain extracts of 3xTg-AD mice; assay type: in vivo, mouse; conditions: 12-month-old 3xTg-AD mice, 5 mg/kg/day, 2 months
Description: (§5) APP C-terminal fragments C99 and C83 are created by beta-secretase and alpha-secretase cleavage respectively. The reduction of both C99 and C83 induced by ST101 could therefore be due to reduction or inhibition of secretases. This hypothesis was tested using Western blots of brain extracts from 3xTg-AD mice from the initial experiment in 12-month-old animals treated with ST101 for 2 months. The only beta-secretase is BACE1 and the constitutive alpha-secretase is ADAM10.
as §1, §2

tau [5] = assay: Western blot of tau and phosphorylated tau in brain extracts of 3xTg-AD mice; assay type: in vivo, mouse; conditions: overexposed blot, 12-month-old 3xTg-AD mice, 5 mg/kg/day, 2 months
Description: The status of tau phosphorylation, accumulation and degradation can be assessed in Western blots. Two anti-tau antibodies, directed against non-phosphorylated and phosphorylated tau, were used to probe brain extracts from the initial experiment. FIG. 12 is a series of Western blots depicting levels of full-length tau, tau accumulates, tau degradation products and phosphorylated tau levels in brain extracts from ST101 treated 3xTG-AD mice (S) versus control mice (C). Beta actin levels (Ac) were used as a loading control. P-tau, two panels per antibody: top—normal exposure; bottom—overexposure to visualize minor protein bands. Ac: beta actin antibody as protein loading control. Animals were approximately 12 months old at sacrifice after 2 months of treatment with ST101 at 5 mg/kg/day.

BACE1 = assay: Western blot of BACE in brain extracts of 3xTg-AD mice; assay type: in vivo, mouse; conditions: 12-month-old 3xTg-AD mice, 5 mg/kg/day, 2 months
Description: as §5, §1, §2

[6] = 24 and 72 hours after final training, 5 mg/kg/day
[7] = 14.5-month-old 3xTg-AD mice, 2.5 months
[8] = antibody CT20, 12-month-old 3xTg-AD mice, 2 months

O=C1N=C2C=CC=CN2C12Cc1ccccc1C2 [ST101, spiro(imidazo(1,2-a)pyridin-2(3H)-one-3,2′-indan)]
Presenilin 1 level (Presenilin 1): did not show significant changes
neuronal loss, Hematoxylin/Eosin stained control sections (tau [1]): no neuronal loss
pathological somato-dendritic tau staining (tau [1]; hippocampus, H7 anti-tau antibody): clear reduction
extracellular ACh concentrations ([2]; cerebral cortex): increases
extracellular concentrations of both ACh and dopamine ([2]; hippocampus): increases
nicotine-stimulated release of acetylcholine (ACh) ([2]; in vivo): potentiates
safety in toxicity studies (Monkey toxicity studies): proven safe
latency on successive days of the training (3xTg-AD mice; 3xTg-AD mice approx. one year old, 5 mg/kg/day in drinking water, vs control): greater reductions in latency
learning and memory performance (3xTg-AD mice; 3xTg-AD mouse strain, 5 mg/kg/day): improves learning and memory performance
crosses during retention testing (3xTg-AD mice; [6]): increases in crosses
latency during retention testing (3xTg-AD mice; [6]): reductions in latency
accumulation of Aβ-like deposits in brain tissue (SAMP8 mouse): decreased accumulation
learning and memory functions (SAMP8 mouse): improvement
safety in toxicity studies [3]: proven safe
17 kDa fragment (APP; [7]): lack of detection
C99 fragment (APP; [7]): much more pronounced; also recorded: reduction
C83 fragment (APP; 14.5-month-old 3xTg-AD mice, 2.5 months, compared with 12-month-old mice): not reduced to the same degree
C83 C-terminal APP fragment (APP; [8]): substantial decrease
C99 C-terminal APP fragment (APP; [8]): substantial decrease
major APP degradation intermediate (~50 kDa) (APP; [8]): disappearance or significant reduction
molecular weight of full-length APP species (APP; [8]): slightly lowered molecular weight of some full-length species
novel C-terminal APP fragment of about 17 kDa (APP; [8]): appearance
APP CTFs (APP; antibody CT20, 14.5-month-old 3xTg-AD mice, 2.5 months): significant effect of reduction
TACE level (ADAM17 (TACE)): reduction of TACE levels in the majority of ST101 treated animals
sAPP-beta level (sAPP-beta): concomitant reduction
Aβ1-40 in cell culture medium (Neuro2a cells): without major effects
Aβ1-42 in cell culture medium (Neuro2a cells): significantly reduced
memory deficits induced by chemical amnesic agents ([4]; methamphetamine, MK-801, scopolamine): attenuates
age-impaired memory ([4]; rodent models): significantly improves
Aβ1-40 in brain (Aβ1-40): reduction of Aβ1-40 in animals treated with ST101 that did not reach statistical significance
ADAM-10 protein level (ADAM10): not significantly affected
pro-ADAM10 protein level (ADAM10): profound reduction
accumulated tau and degradation products (tau [5]; H7 antibody): disappearance of accumulated tau and degradation products
phosphorylated tau degradation product (tau [5]; R-p-tau antibody): appearance of a new phosphorylated tau degradation product
BACE protein level (BACE1): profound reduction
Pro-BACE protein level (BACE1): not significantly affected
